Measurements from patent US10829520B2, “Beta-hairpin peptidomimetics” (POLYPHOR AG, priority 2015, dated 2020).
Where a SMILES comes first, the peptide text is derived from it. Bridges are numbered along the chain shown (N, C = ends). Roman numbers before positions name the chains, in order. [ ]: non-standard residue; d: D form. Tle = CC(C)(C)[C@H](N)C(=O)O; dNle = CCCC[C@@H](N)C(=O)O; dDab = NCC[C@@H](N)C(=O)O; Nle = CCCC[C@H](N)C(=O)O; Orn = NCCC[C@H](N)C(=O)O; Dab = NCC[C@H](N)C(=O)O; Dap = NC[C@H](N)C(=O)O; Sar = CNCC(=O)O

What was measured:
Assay type in all cases: cell-based
[1] = system: Acinetobacter baumannii DSM 30008; conditions: DSM 30008
In short: (§1)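 Antibacterial activity is measured as MIC (μg/mL) by standard CLSI microdilution. Inocula of about 10^6 CFU/mL in MH-II broth meet two-fold peptide dilutions in medium with 0.002% Polysorbate 80, and growth is scored visually after 18-20 hours at 35° C.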

[2] = system: Escherichia coli ATCC 25922; conditions: ATCC 25922
In short: as §1

[3] = system: Acinetobacter baumannii 872842; conditions: 872842
[4] = system: Pseudomonas aeruginosa ATCC 27853; conditions: ATCC 27853
In short: as §1

[5] = system: Klebsiella pneumoniae 968733; conditions: 968733
[6] = system: Klebsiella pneumoniae SSI #3010; conditions: SSI #3010
In short: as §1

[7] = system: Escherichia coli 926415; conditions: 926415
[8] = system: human red blood cells (hRBC); experiment: Hemolysis of human red blood cells; conditions: red cells of human, 1 h
In short: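 Percent hemolysis = OD540 of peptide-treated supernatant relative to the 2.5% Triton X-100 (100%) control, PBS containing 0.001% acetic acid defining 0%. Peptides tested at 100 μg/mL against 20% (v/v) washed human RBC, 1 h, 37 °C, 300 rpm.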

Row | Structure (SMILES) | Acinetobacter baumannii DSM 30008 MIC [1] | Escherichia coli ATCC 25922 MIC [2] | Acinetobacter baumannii 872842 MIC [3] | Pseudomonas aeruginosa ATCC 27853 MIC [4] | Klebsiella pneumoniae 968733 MIC [5] | Klebsiella pneumoniae SSI #3010 MIC [6] | Escherichia coli 926415 MIC [7] | Hemolysis at 100 μg/mL ([8]; 100 μg/mL) | Hemolysis at 100 μg/mL [8]; 100
1 | CCCC[C@@H]1NC(=O)[C@@H]2CCCN2C(=O)[C@H]2CCCN2C(=O)[C@H](CO)NC(=O)[C@H](C)NC(=O)[C@H](C(C)(C)C)NC(=O)[C@@H](NC(=O)[C@@H](N)Cc2c[nH]c3ccccc23)CSSC[C@@H](C(=O)N[C@@H](CCN)C(=O)N[C@H](C(=O)N[C@@H](CCN)C(=O)N[C@H]2CCNC(=O)[C@H]([C@@H](C)O)NC(=O)[C@H](CCN)NC(=O)[C@H](CCN)NC(=O)[C@H](CC(C)C)NC(=O)[C@@H](CC(C)C)NC(=O)[C@H](CCN)NC2=O)[C@@H](C)O)NC(=O)[C@H](Cc2ccc(O)cc2)NC(=O)[C@H](CO)NC1=O [Ex. 15] (H-WC[Tle]AS[dP]P[Nle]SYC[Dab]T[Dab][Dab][Dab][dL]L[Dab][Dab]T; disulfide 2-11; lactam 15-C) | 0.5 µg/mL | 0.125 µg/mL | 0.25 µg/mL | 1 µg/mL | 2 µg/mL | 0.25 µg/mL | 0.125 µg/mL | 1% | 
2 | CC(C)C[C@@H]1NC(=O)[C@@H](CC(C)C)NC(=O)[C@H](CCN)NC(=O)[C@@H](NC(=O)[C@H](CCN)NC(=O)[C@H](CCN)NC(=O)[C@@H](NC(=O)[C@H](CCCN)NC(=O)[C@@H]2CSSC[C@H](NC(=O)[C@@H](N)Cc3c[nH]c4ccccc34)C(=O)N[C@@H](C(C)C)C(=O)N[C@@H](Cc3ccc(O)cc3)C(=O)N[C@@H](CO)C(=O)N3CCC[C@@H]3C(=O)N3CCC[C@H]3C(=O)N[C@@H](CC(C)C)C(=O)N[C@@H](CC(=O)O)C(=O)N[C@@H](Cc3ccc(O)cc3)C(=O)N2)[C@@H](C)O)CCNC(=O)[C@H]([C@@H](C)O)NC(=O)[C@H](CCN)NC(=O)[C@H](CCN)NC1=O [Ex. 151] (H-WCVYS[dP]PLDYC[Orn]T[Dab][Dab][Dab][Dab][dL]L[Dab][Dab]T; disulfide 2-11; lactam 16-C) | 1 µg/mL | 0.25 µg/mL | 0.5 µg/mL | 0.5 µg/mL | 8 µg/mL | 1 µg/mL | 2 µg/mL | <1% | 
3 | CCCC[C@@H]1NC(=O)[C@@H]2CCCN2C(=O)[C@H]2CCCN2C(=O)[C@H](CO)NC(=O)[C@H](CO)NC(=O)[C@H](C(C)(C)C)NC(=O)[C@H](CCN)NC(=O)[C@H](Cc2c[nH]c3ccccc23)NC(=O)[C@@H](N)CSSC[C@@H](C(=O)N[C@H](CCCC)C(=O)N[C@H](CCN)C(=O)N[C@H]2CCNC(=O)[C@H]([C@@H](C)O)NC(=O)[C@H](CCN)NC(=O)[C@H](CCN)NC(=O)[C@H](CC(C)C)NC(=O)[C@@H](Cc3ccccc3)NC(=O)[C@H](CCN)NC2=O)NC(=O)[C@H](CCCN)NC(=O)[C@H](CCN)NC(=O)[C@H](Cc2ccc(O)cc2)NC(=O)[C@H](CO)NC1=O [Ex. 200] (H-CW[Dab][Tle]SS[dP]P[Nle]SY[Dab][Orn]C[dNle][dDab][Dab][Dab][dF]L[Dab][Dab]T; disulfide 1-14; lactam 17-C) | 0.5 µg/mL | 0.125 µg/mL | 1 µg/mL | 2 µg/mL | 1 µg/mL | 0.25 µg/mL | 0.5 µg/mL | <1% | 
4 | CCCC[C@@H]1NC(=O)[C@@H]2CCCN2C(=O)[C@H]2CCCN2C(=O)[C@H](CO)NC(=O)[C@H](CO)NC(=O)[C@H](C(C)C)NC(=O)[C@@H](NC(=O)[C@@H](N)Cc2c[nH]c3ccccc23)CSSC[C@@H](C(=O)N(C)CC(=O)N[C@@H](CCN)C(=O)N[C@H](C(=O)N[C@@H](CCN)C(=O)N[C@H]2CCNC(=O)[C@H]([C@@H](C)O)NC(=O)[C@H](CCN)NC(=O)[C@H](CCN)NC(=O)[C@H](CC(C)C)NC(=O)[C@@H](CC(C)C)NC(=O)[C@H](CCN)NC2=O)[C@@H](C)O)NC(=O)[C@H](C)NC(=O)[C@H](CN)NC1=O [Ex. 150] (H-WCVSS[dP]P[Nle][Dap]AC[Sar][Dab]T[Dab][Dab][Dab][dL]L[Dab][Dab]T; disulfide 2-11; lactam 16-C) | 0.25 µg/mL | 0.125 µg/mL | 0.25 µg/mL | 1 µg/mL | 8 µg/mL | 0.25 µg/mL | 0.5 µg/mL | <1% | 
5 | CCCC[C@@H]1NC(=O)[C@@H]2CCCN2C(=O)[C@H]2CCCN2C(=O)[C@H](CO)NC(=O)[C@H](C)NC(=O)[C@H](C(C)(C)C)NC(=O)[C@@H](NC(=O)[C@H](Cc2c[nH]c3ccccc23)NC(C)=O)CSSC[C@@H](C(=O)N[C@@H](CCN)C(=O)N[C@@H](CCN)C(=O)N[C@H](C(=O)N[C@@H](CCN)C(=O)N[C@H]2CCNC(=O)[C@H]([C@@H](C)O)NC(=O)[C@H](CCN)NC(=O)[C@H](CCN)NC(=O)[C@H](CC(C)C)NC(=O)[C@@H](Cc3ccccc3)NC(=O)[C@H](CCN)NC2=O)[C@@H](C)O)NC(=O)[C@H](Cc2ccc(O)cc2)NC(=O)[C@H](CO)NC1=O [Ex. 27] (Ac-WC[Tle]AS[dP]P[Nle]SYC[Dab][Dab]T[Dab][Dab][Dab][dF]L[Dab][Dab]T; disulfide 2-11; lactam 16-C) | 0.125 µg/mL | 0.0625 µg/mL | 0.125 µg/mL | 0.25 µg/mL | 0.5 µg/mL | 0.125 µg/mL | 0.5 µg/mL | <1% | 
6 | CCCC[C@@H]1NC(=O)[C@@H]2CCCN2C(=O)[C@H]2CCCN2C(=O)[C@H](CO)NC(=O)[C@H](C)NC(=O)[C@H](C(C)(C)C)NC(=O)[C@H](CCN)NC(=O)[C@H](Cc2c[nH]c3ccccc23)NC(=O)[C@H](CCN)NC(=O)[C@H](CCC(=O)N[C@@H](CCN)C(=O)N[C@H](CCN)C(=O)N[C@H]2CCNC(=O)[C@H]([C@@H](C)O)NC(=O)[C@H](CCN)NC(=O)[C@H](CCN)NC(=O)[C@H](CC(C)C)NC(=O)[C@@H](Cc3ccccc3)NC(=O)[C@H](CCN)NC2=O)NC(=O)[C@H](CCCN)NC(=O)[C@H](CCN)NC(=O)[C@H](Cc2ccc(O)cc2)NC(=O)[C@H](CO)NC1=O [Ex. 74] (I: cyclo([Nle]SY[Dab][Orn]E[Dab]W[Dab][Tle]AS[dP]P) / II: [Dab][dDab][Dab][Dab][dF]L[Dab][Dab]T; amide I:6-II:N; lactam II:3-II:C) | 1 µg/mL | 2 µg/mL | 4 µg/mL | 1 µg/mL | 2 µg/mL | 1 µg/mL | 1 µg/mL |  | 2%
7 | CCCC[C@@H]1NC(=O)[C@@H]2CCCN2C(=O)[C@H]2CCCN2C(=O)[C@H](CO)NC(=O)[C@H](C)NC(=O)[C@H](C(C)(C)C)NC(=O)[C@H](CCN)NC(=O)[C@H](Cc2c[nH]c3ccccc23)NC(=O)[C@H](CCN)NC(=O)[C@@H](CCN)NC(=O)[C@H](CC(=O)N[C@@H](CCN)C(=O)N[C@H]2CCNC(=O)[C@H]([C@@H](C)O)NC(=O)[C@H](CCN)NC(=O)[C@H](CCN)NC(=O)[C@H](CC(C)C)NC(=O)[C@@H](Cc3ccccc3)NC(=O)[C@H](CCN)NC2=O)NC(=O)[C@H](CCN)NC(=O)[C@H](Cc2ccc(O)cc2)NC(=O)[C@H](CO)NC1=O [Ex. 67] (I: cyclo([Nle]SY[Dab]D[dDab][Dab]W[Dab][Tle]AS[dP]P) / II: [Dab][Dab][Dab][dF]L[Dab][Dab]T; amide I:5-II:N; lactam II:2-II:C) | 1 µg/mL | 1 µg/mL | 4 µg/mL | 1 µg/mL | 2 µg/mL | 2 µg/mL | 2 µg/mL |  | <1%
8 | CNCC(=O)N[C@@H](Cc1c[nH]c2ccccc12)C(=O)N[C@H]1CSSC[C@@H](C(=O)N(C)CC(=O)N[C@@H](CCN)C(=O)N[C@H](C(=O)N[C@@H](CCN)C(=O)N[C@H]2CCNC(=O)[C@H]([C@@H](C)O)NC(=O)[C@H](CCNC(=O)[C@@H](N)CCCNC(=N)N)NC(=O)[C@H](CCN)NC(=O)[C@H](CC(C)C)NC(=O)[C@@H](CC(C)C)NC(=O)[C@H](CCN)NC2=O)[C@@H](C)O)NC(=O)[C@H](Cc2ccc(O)cc2)NC(=O)[C@H](CO)NC(=O)[C@H](CC(C)C)NC(=O)[C@@H]2CCCN2C(=O)[C@H]2CCCN2C(=O)[C@H](CO)NC(=O)[C@H](C)NC(=O)[C@H](C(C)C)NC1=O [Ex. 187] (H-[Sar]WCVAS[dP]PLSYC[Sar][Dab]T[Dab][Dab][Dab][dL]L[Dab][Dab](Arg)T; disulfide 3-12; lactam 17-C) | 0.125 µg/mL | 0.125 µg/mL | 1 µg/mL | 1 µg/mL | 1 µg/mL | 0.125 µg/mL | 2 µg/mL | <1% | 
